Test results: US8334315B2, “Substituted aromatic carboxamide and urea derivatives as vanilloid receptor ligands” (Gruenenthal GmbH, priority 2009, dated 2012)

Tests used:
[1] = molecular target: T1, rat-species vanilloid receptor 1 (VR1/TRPV1) (Rattus norvegicus, UniProt O35433); assay: Functional testing on the vanilloid receptor 1, FLIPR Ca2+ influx in rat DRG cells, capsaicin; type: cell-based; set-up: key to Ki (rat) [nM] Cap: agonist / partial agonist / no effect: AG=agonist; pAG=partial agonist; NE=no effect; settings: for Ki: capsaicin (Cap), includes values given in brackets after pAG
T1 construct: endogenous in cells; host or cells: primary cells dissociated from rat dorsal root ganglia (DRG), cultured 2-3 days with NGF

hVR1 = molecular target: T2, hVR1 (Homo sapiens, UniProt Q8NER1); assay: Functional test on VR1, FLIPR Ca2+ influx in transfected CHO K1 cells, capsaicin; type: cell-based, human being; set-up: key to Ki (human being) [nM] Cap: agonist / partial agonist / no effect: AG=agonist; pAG=partial agonist; NE=no effect; settings: for Ki: capsaicin (Cap), includes values given in brackets after pAG, read-out: Ki (human being) [nM] Cap
T2 construct: expressed in transfected cells; host or cells: CHO K1 cells (ECACC), stably transfected
T2 sequence (Q8NER1 whole entry): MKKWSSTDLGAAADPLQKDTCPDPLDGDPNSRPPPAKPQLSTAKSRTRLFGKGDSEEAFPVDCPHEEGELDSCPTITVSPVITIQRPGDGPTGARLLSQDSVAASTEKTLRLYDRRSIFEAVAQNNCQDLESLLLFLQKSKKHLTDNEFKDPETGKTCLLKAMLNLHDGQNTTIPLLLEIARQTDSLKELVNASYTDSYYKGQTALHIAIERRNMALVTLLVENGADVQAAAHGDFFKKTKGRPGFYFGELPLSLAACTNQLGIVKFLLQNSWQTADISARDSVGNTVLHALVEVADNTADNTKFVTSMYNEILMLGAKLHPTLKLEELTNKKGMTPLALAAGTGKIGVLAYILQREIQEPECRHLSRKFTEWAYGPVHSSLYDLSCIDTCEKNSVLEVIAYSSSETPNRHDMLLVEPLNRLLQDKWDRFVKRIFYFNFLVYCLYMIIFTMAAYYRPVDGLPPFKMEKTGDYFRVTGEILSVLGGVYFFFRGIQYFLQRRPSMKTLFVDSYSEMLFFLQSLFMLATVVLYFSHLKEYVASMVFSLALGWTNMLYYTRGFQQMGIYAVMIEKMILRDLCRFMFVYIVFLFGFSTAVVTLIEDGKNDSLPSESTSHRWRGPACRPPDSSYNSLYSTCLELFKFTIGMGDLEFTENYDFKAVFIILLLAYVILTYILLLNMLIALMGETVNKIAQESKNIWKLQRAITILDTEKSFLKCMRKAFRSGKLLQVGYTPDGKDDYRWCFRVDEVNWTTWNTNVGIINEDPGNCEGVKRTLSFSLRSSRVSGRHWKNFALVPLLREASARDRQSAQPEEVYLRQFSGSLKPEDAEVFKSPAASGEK

T1 sequence (O35433 whole entry): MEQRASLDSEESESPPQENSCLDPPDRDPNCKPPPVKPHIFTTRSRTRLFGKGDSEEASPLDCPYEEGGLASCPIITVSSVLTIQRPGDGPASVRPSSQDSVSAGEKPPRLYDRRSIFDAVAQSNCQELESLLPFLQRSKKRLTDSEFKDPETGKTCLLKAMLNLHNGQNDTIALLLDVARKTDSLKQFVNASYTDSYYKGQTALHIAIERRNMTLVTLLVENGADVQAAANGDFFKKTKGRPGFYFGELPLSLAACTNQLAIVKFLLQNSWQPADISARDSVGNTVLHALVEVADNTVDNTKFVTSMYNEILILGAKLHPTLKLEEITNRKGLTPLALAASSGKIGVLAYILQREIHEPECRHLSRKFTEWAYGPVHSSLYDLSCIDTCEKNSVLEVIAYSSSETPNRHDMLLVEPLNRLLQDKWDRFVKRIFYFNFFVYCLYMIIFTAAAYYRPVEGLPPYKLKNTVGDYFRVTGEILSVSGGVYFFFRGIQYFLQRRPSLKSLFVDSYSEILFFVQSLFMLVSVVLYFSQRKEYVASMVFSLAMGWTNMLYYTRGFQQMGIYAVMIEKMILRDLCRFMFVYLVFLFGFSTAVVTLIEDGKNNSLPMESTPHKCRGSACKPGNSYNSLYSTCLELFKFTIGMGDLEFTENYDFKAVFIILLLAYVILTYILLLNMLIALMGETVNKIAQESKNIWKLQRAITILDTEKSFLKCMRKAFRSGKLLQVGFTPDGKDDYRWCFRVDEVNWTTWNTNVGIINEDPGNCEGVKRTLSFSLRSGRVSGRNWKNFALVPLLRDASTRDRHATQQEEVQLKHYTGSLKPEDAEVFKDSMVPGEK

| SMILES | Ki (rat) [nM] Cap: agonist / partial agonist / no effect [1] | Ki (human being) [nM] Cap: agonist / partial agonist / no effect (hVR1) | Ki (hVR1) [nM] | Ki [1] [nM] |
| --- | --- | --- | --- | --- |
| CC(C(=O)NCc1cc(C(C)(C)C)nn1-c1cccc(Cl)c1)c1ccc2c(c1)OCO2 (stereo not drawn) [Example 11, 2-(benzo[d][1,3]dioxol-5-yl)-N-((3-tert-butyl-1-(3-chlorophenyl)-1H-pyrazol-5-yl)methyl)propanamide] | AG | pAG | 3.5 | – |
| CC(C(=O)NCc1cc(C(C)(C)C)nn1-c1cccc(Cl)c1)c1ccc2c(c1)OCCO2 (stereo not drawn) [Example 13, N-((3-tert-butyl-1-(3-chlorophenyl)-1H-pyrazol-5-yl)methyl)-2-(2,3-dihydrobenzo[b][1,4]dioxin-6-yl)propanamide] | pAG | pAG | 6.4 | 5.5 |
| Cc1nc2ccc(C(C)C(=O)NCc3cc(C(F)(F)F)nn3-c3cccc(Cl)c3)cc2s1 (stereo not drawn) [Example 45, N-((1-(3-chlorophenyl)-3-(trifluoromethyl)-1H-pyrazol-5-yl)methyl)-2-(2-methylbenzo[d]thiazol-6-yl)propanamide] | pAG | – | 15 | 14.7 |
| CC(C(=O)NCc1cc(C(F)(F)F)nn1-c1cccc(Cl)c1)c1ccc2cc(O)ccc2c1 (stereo not drawn) [Example 50, N-((1-(3-chlorophenyl)-3-(trifluoromethyl)-1H-pyrazol-5-yl)methyl)-2-(6-hydroxynaphthalen-2-yl)propanamide] | pAG | pAG | 1.3 | 2.5 |
| CC(C(=O)NCc1cc(C(F)(F)F)nn1-c1cccc(Cl)c1)c1cccc2cnccc12 (stereo not drawn) [Example 64, N-((1-(3-chlorophenyl)-3-(trifluoromethyl)-1H-pyrazol-5-yl)methyl)-2-(isoquinolin-5-yl)propanamide] | – | – | 0.2 | 1 |
| CC(C)(C)c1cc(CNC(=O)Nc2ccc3c(c2)CCC3)n(-c2cccc(Cl)c2)n1 [Example 79, 1-((3-tert-butyl-1-(3-chlorophenyl)-1H-pyrazol-5-yl)methyl)-3-(2,3-dihydro-1H-inden-5-yl)urea] | – | – | 10.8 | 15.8 |
